Laboratory results reported in US10202360B2 (CELGENE QUANTICEL RESEARCH, INC., priority 2016, dated 2019).

Molecular target: CREBBP (Homo sapiens (Human), UniProt Q92793)
Assay: In vitro enzyme inhibition assay - CREBBP inhibition (AlphaScreen, biotinylated H4-tetraacetyl peptide)
Format: binding
Conditions: Table 28; AlphaScreen, H4-tetraacetyl peptide
Description: Determination of the IC50 for the CREBBP inhibitors disclosed herein was performed as follows: CREBBP was cloned and expressed in E. Coli as His-tag protein and purified by Nickel affinity and gel-filtration chromatography. […] CREBBP binding and inhibition was assessed by monitoring the interaction of biotinylated H4-tetraacetyl peptide (AnaSpec, H4K5/8/12/16(Ac), biotin-labeled) with the target using the AlphaScreen technology (Perkin Elmer). In a 384-well ProxiPlate CREBBP (50 nM final) was combined with peptide (20 nM final) in 50 mM HEPES (pH 7.3), 10 mM NaCl, 0.25 mM TCEP, 0.1% (w/v) BSA, and 0.005% (w/v) Brij-35 either in the presence of DMSO (final 0.4% DMSO) or compound dilution series in DMSO. After 20-minute incubation at room temperature, Alpha streptavidin donor beads and Nickel Chelate acceptor beads were added to a final concentration of 5 μg/mL. After two hours of equilibration, plates were read on an Envision instrument and the IC50 was calculated using a four parameter non-linear curve fit.
The ability of the compounds disclosed herein to inhibit CBP activity was quantified and the respective IC50 value was determined.

Sequence of CREBBP (Q92793 1081-1197): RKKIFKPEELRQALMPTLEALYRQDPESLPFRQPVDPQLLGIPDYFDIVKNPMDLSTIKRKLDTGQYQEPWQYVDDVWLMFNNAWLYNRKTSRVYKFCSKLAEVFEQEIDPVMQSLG

IC50 [nM]	SMILES
< 500	CCS(=O)(=O)Nc1cc(-c2cc(C)c(=O)n(C)c2)nc(-c2ccccc2OC)n1 [Example 193, Ethanesulfonic acid [6-(1,5-dimethyl-6-oxo-1,6-dihydro-pyridin-3-yl)-2-(2-methoxy-phenyl)-pyrimidin-4-yl]-amide]
< 500	Cc1cc(Cl)cc(Cl)c1Oc1nc(NS(C)(=O)=O)cc(-c2cc(C)c(=O)n(C)c2)n1 [Example 25, N-[2-(2,4-Dichloro-6-methyl-phenoxy)-6-(1,5-dimethyl-6-oxo-1,6-dihydro-pyridin-3-yl)-pyrimidin-4-yl]-methanesulfonamide]
< 500	CCCCS(=O)(=O)Nc1cc(-c2ccc(=O)n(C)c2)nc(Oc2c(F)cccc2OC)n1 [Example 233, Butane-1-sulfonic acid [2-(2-fluoro-6-methoxy-phenoxy)-6-(1-methyl-6-oxo-1,6-dihydro-pyridin-3-yl)-pyrimidin-4-yl]-amide]
< 500	Cc1ccc(Cl)c(Oc2nc(NS(=O)(=O)CCC(C)C)cc(-c3ccc(=O)n(C)c3)n2)c1F [Example 262, 3-Methyl-butane-1-sulfonic acid [2-(6-chloro-2-fluoro-3-methyl-phenoxy)-6-(1-methyl-6-oxo-1,6-dihydro-pyridin-3-yl)-pyrimidin-4-yl]-amide]
500 to 5000	CCCS(=O)(=O)Nc1cc(-c2ccc(=O)n(C)c2)nc(-c2ccccc2OC)n1 [Example 196, Propane-1-sulfonic acid [2-(2-methoxy-phenyl)-6-(1-methyl-6-oxo-1,6-dihydro-pyridin-3-yl)-pyrimidin-4-yl]-amide]
< 500	COc1nc(NC(C)c2ccccc2)cc(-c2ccc(=O)n(C)c2)n1 (stereo not drawn) [Example 327, 5-[2-Methoxy-6-(1-phenyl-ethylamino)-pyrimidin-4-yl]-1-methyl-1H-pyridin-2-one]
< 500	CCCCS(=O)(=O)Nc1nc(Oc2c(F)cccc2Cl)nc(-c2ccc(=O)n(C)c2)n1 [Example 182, Butane-1-sulfonic acid [4-(2-chloro-6-fluoro-phenoxy)-6-(1-methyl-6-oxo-1,6-dihydro-pyridin-3-yl)-[1,3,5]triazin-2-yl]-amide]
< 500	CCCS(=O)(=O)Nc1cc(-c2ccc(=O)n(C)c2)nc(Oc2c(C)cccc2Cl)n1 [Example 103, Propane-1-sulfonic acid [2-(2-chloro-6-methyl-phenoxy)-6-(1-methyl-6-oxo-1,6-dihydro-pyridin-3-yl)-pyrimidin-4-yl]-amide]
< 500	Cc1cccc(Cl)c1Oc1nc(NS(=O)(=O)CC2CC2)cc(-c2ccc(=O)n(C)c2)n1 [Example 264, N-[2-(2-Chloro-6-methyl-phenoxy)-6-(1-methyl-6-moxo-1,6-dihydro-pyridin-3-yl)-pyrimidin-4-yl]-C-cyclopropyl-methanesulfonamide]
< 500	Cc1cc(-c2cc(NS(=O)(=O)C(C)C)nc(Oc3c(F)cccc3Cl)n2)cn(C)c1=O [Example 142, Propane-2-sulfonic acid [2-(2-chloro-6-fluoro-phenoxy)-6-(1,5-dimethyl-6-oxo-1,6-dihydro-pyridin-3-yl)-pyrimidin-4-yl]-amide]
< 500	CCCCNc1cc(-c2ccc(=O)n(C)c2)nc(Oc2c(C)cccc2C#N)n1 [Example 316, 2-[4-Butylamino-6-(1-methyl-6-oxo-1,6-dihydro-pyridin-3-yl)-pyrimidin-2-yloxy]-3-methyl-benzonitrile]
< 500	CC[C@H](C)S(=O)(=O)Nc1cc(-c2cc(C)c(=O)n(C)c2)nc(Oc2c(C)cccc2Cl)n1 [Example 222, (S)-N-(2-(2-chloro-6-methylphenoxy)-6-(1,5-dimethyl-6-oxo-1,6-dihydropyridin-3-yl)pyrimidin-4-yl)butane-2-sulfonamide]
< 500	Cc1cccc(Cl)c1Oc1nc(NC(C)C)cc(-c2ccc(=O)n(C)c2)n1 [Example 283, 5-(2-(2-chloro-6-methylphenoxy)-6-(isopropylamino)pyrimidin-4-yl)-1-methylpyridin-2(1H)-one]
< 500	CCCCS(=O)(=O)Nc1cc(-c2cc(Cl)c(=O)n(C)c2)nc(Oc2c(C)cccc2C#N)n1 [Example 114, Butane-1-sulfonic acid [6-(5-chloro-1-methyl-6-oxo-1,6-dihydro-pyridin-3-yl)-2-(2-cyano-6-methyl-phenoxy)-pyrimidin-4-yl]-amide]
< 500	COCCS(=O)(=O)Nc1cc(-c2cc(C)c(=O)n(C)c2)nc(Oc2c(C)cccc2C)n1 [Example 78, N-(6-(1,5-dimethyl-6-oxo-1,6-dihydropyridin-3-yl)-2-(2,6-dimethylphenoxy)pyrimidin-4-yl)-2-methoxyethane-1-sulfonamide]
< 500	Cc1cccc(Cl)c1Oc1nc(-c2cc(C)c(=O)n(C)c2)cc(S(=O)(=O)C(C)C)n1 [Example 135, 5-[2-(2-Chloro-6-methyl-phenoxy)-6-(propane-2-sulfonyl)-pyrimidin-4-yl]-1,3-dimethyl-1H-pyridin-2-one]
< 500	Cc1cccc(C#N)c1Oc1nc(NS(=O)(=O)CCC(F)(F)F)cc(-c2ccc(=O)n(C)c2)n1 [Example 149, N-(2-(2-cyano-6-methylphenoxy)-6-(1-methyl-6-oxo-1,6-dihydropyridin-3-yl)pyrimidin-4-yl)-3,3,3-trifluoropropane-1-sulfonamide]
< 500	Cc1cccc(Cl)c1Oc1nc(NS(=O)(=O)C(C)C)nc(-c2ccc(=O)n(C)c2)n1 [Example 180, Propane-2-sulfonic acid [4-(2-chloro-6-methyl-phenoxy)-6-(1-methyl-6-oxo-1,6-dihydro-pyridin-3-yl)-[1,3,5]triazin-2-yl]-amide]
< 500	CC[C@H](C)S(=O)(=O)Nc1cc(-c2ccc(=O)n(C)c2)nc(Oc2c(C)cccc2Cl)n1 [Example 205, Butane-(2S)-sulfonic acid [2-(2-chloro-6-mehtyl-phenoxy)-6-(1-methyl-6-oxo-1,6-dihydro-pyridin-3-yl)-pyrimidin-4-yl]-amide]
< 500	Cc1cccc(C)c1Oc1nc(NS(=O)(=O)CCCF)cc(-c2cc(C)c(=O)n(C)c2)n1 [Example 81, N-(6-(1,5-dimethyl-6-oxo-1,6-dihydropyridin-3-yl)-2-(2,6-dimethylphenoxy)pyrimidin-4-yl)-3-fluoropropane-1-sulfonamide]
< 500	COc1cccc(F)c1Oc1nc(NS(=O)(=O)C(C)C)cc(-c2ccc(=O)n(C)c2)n1 [Example 234, Propane-2-sulfonic acid [2-(2-fluoro-6-methoxy-phenoxy)-6-(1-methyl-6-oxo-1,6-dihydro-pyridin-3-yl)-pyrimidin-4-yl]-amide]
< 500	CCCCS(=O)(=O)Nc1nc(Oc2c(F)cccc2F)nc(-c2cc(C)c(=O)n(C)c2)n1 [Example 189, Butane-1-sulfonic acid [4-(2,6-difluoro-phenoxy)-6-(1,5-dimethyl-6-oxo-1,6-dihydro-pyridin-3-yl)-[1,3,5]triazin-2-yl]-amide]
< 500	Cc1cccc(C#N)c1Oc1nc(NS(=O)(=O)C(C)C)cc(-c2cc(C)c(=O)n(C)c2)n1 [Example 24, Propane-2-sulfonic acid [2-(2-cyano-6-methyl-phenoxy)-6-(1,5-dimethyl-6-oxo-1,6-dihydro-pyridin-3-yl)-pyrimidin-4-yl]-amide]
< 500	CCCS(=O)(=O)Nc1cc(-c2cc(C)c(=O)n(C)c2)nc(Oc2c(F)cccc2Cl)n1 [Example 141, Propane-1-sulfonic acid [2-(2-chloro-6-fluoro-phenoxy)-6-(1,5-dimethyl-6-oxo-1,6-dihydro-pyridin-3-yl)-pyrimidin-4-yl]-amide]
< 500	CC[C@@H](C)S(=O)(=O)Nc1cc(-c2ccc(=O)n(C)c2)nc(Oc2c(F)cccc2C2CC2)n1 [Example 210, Butane-(2R)-sulfonic acid [2-(2-cyclopropyl-6-fluoro-phenoxy)-6-(1-methyl-6-oxo-1,6-dihydro-pyridin-3-yl)-pyrimidin-4-yl]-amide]
< 500	COc1ccc(C#N)cc1Oc1nc(NS(=O)(=O)C(C)C)cc(-c2cc(C)c(=O)n(C)c2)n1 [Example 9, Propane-2-sulfonic acid [2-(5-cyano-2-methoxy-phenoxy)-6-(1,5-dimethyl-6-oxo-1,6-dihydro-pyridin-3-yl)-pyrimidin-4-yl]-amide]
< 500	Cc1ccc(CNc2cc(-c3ccc(=O)n(C)c3)nc(Oc3c(C)cccc3F)n2)cn1 [Example 290, 5-(2-(2-fluoro-6-methylphenoxy)-6-(((6-methylpyridin-3-yl)methyl)amino)pyrimidin-4-yl)-1-methylpyridin-2(1H)-one]
< 500	CCCCS(=O)(=O)Nc1cc(-c2cc(C)c(=O)n(C)c2)nc(Oc2c(C)cc(F)cc2Cl)n1 [Example 98, Butane-1-sulfonic acid [2-(2-chloro-4-fluoro-6-methyl-phenoxy)-6-(1,5-dimethyl-6-oxo-1,6-dihydro-pyridin-3-yl)-pyrimidin-4-yl]-amide]
500 to 5000	CCCS(=O)(=O)Nc1cc(-c2cc(C)c(=O)n(C)c2)nc(-c2ccccc2)n1 [Example 156, N-(6-(1,5-dimethyl-6-oxo-1,6-dihydropyridin-3-yl)-2-phenylpyrimidin-4-yl)propane-1-sulfonamide]
< 500	COc1cccc(C)c1Oc1nc(NS(=O)(=O)C(C)C)cc(-c2cc(C)c(=O)n(C)c2)n1 [Example 8, Propane-2-sulfonic acid [6-(1,5-dimethyl-6-oxo-1,6-dihydro-pyridin-3-yl)-2-(2-methoxy-6-methyl-phenoxy)-pyrimidin-4-yl]-amide]
